Laboratory results reported in publication PMC6199744, “Development of Chemical Proteomics for the Folateome and Analysis of the Kinetoplastid Folateome” (ACS Infectious Diseases, 2018).
Read-outs that look alike come from different tables or passages of the source.

How the values were obtained:
Type in all cases: binding
[1] = target: T1, HeLa cell extract proteins (Homo sapiens, UniProt Q9P2J5)
T1 construct: endogenous in cells; host or cells: HeLa cell extract

[2] = target: T2, HeLa cell extract proteins (Homo sapiens, UniProt Q96QU8)
T2 construct: endogenous in cells; host or cells: HeLa cell extract
T2 sequence (Q96QU8 1-1125): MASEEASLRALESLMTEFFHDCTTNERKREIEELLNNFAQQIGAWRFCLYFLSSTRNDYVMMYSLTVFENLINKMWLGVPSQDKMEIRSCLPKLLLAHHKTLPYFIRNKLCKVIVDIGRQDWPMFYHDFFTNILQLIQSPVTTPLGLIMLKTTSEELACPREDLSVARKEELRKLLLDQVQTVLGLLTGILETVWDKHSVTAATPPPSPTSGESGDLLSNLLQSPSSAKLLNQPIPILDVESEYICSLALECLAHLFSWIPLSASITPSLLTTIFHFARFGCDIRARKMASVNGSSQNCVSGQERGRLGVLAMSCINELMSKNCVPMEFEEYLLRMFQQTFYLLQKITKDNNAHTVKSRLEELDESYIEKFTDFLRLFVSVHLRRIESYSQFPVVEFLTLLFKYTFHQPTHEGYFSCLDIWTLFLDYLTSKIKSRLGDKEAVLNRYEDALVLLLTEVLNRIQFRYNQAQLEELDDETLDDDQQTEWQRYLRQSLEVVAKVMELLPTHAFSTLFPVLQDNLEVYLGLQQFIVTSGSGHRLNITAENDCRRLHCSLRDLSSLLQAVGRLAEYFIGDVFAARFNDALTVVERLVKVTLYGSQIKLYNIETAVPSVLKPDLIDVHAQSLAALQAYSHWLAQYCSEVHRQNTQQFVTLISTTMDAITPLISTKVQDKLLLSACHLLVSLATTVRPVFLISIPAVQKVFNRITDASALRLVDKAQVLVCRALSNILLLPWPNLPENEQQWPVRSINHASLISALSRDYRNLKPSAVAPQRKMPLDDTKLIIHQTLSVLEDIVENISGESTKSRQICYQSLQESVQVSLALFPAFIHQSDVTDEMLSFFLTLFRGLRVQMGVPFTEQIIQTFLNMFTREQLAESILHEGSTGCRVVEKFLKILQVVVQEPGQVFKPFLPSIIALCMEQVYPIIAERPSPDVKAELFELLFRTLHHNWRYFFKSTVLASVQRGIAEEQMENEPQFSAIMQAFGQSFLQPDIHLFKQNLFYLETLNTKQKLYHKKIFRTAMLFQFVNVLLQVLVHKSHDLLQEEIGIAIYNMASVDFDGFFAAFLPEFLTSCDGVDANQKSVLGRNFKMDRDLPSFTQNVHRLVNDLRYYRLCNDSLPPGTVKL

[3] = target: T3, HeLa cell extract proteins (Homo sapiens, UniProt Q9UJ70); details: captured protein NAGK; HeLa
T3 construct: endogenous in cells; host or cells: HeLa cell extract

[4] = target: T4, HeLa cell extract proteins (Homo sapiens, UniProt Q8WUX1); details: HeLa; protein SLC38A5
T4 construct: endogenous in cells; host or cells: HeLa cell extract

[5] = target: T5, HeLa cell extract proteins (Homo sapiens, UniProt Q9H7Z7); details: captured protein PTGES2; HeLa
T5 construct: endogenous in cells; host or cells: HeLa cell extract

[6] = target: T6, HeLa cell extract proteins (Homo sapiens, UniProt Q14746); details: captured protein COG2; HeLa
T6 construct: endogenous in cells; host or cells: HeLa cell extract
T6 sequence (Q14746 1-738): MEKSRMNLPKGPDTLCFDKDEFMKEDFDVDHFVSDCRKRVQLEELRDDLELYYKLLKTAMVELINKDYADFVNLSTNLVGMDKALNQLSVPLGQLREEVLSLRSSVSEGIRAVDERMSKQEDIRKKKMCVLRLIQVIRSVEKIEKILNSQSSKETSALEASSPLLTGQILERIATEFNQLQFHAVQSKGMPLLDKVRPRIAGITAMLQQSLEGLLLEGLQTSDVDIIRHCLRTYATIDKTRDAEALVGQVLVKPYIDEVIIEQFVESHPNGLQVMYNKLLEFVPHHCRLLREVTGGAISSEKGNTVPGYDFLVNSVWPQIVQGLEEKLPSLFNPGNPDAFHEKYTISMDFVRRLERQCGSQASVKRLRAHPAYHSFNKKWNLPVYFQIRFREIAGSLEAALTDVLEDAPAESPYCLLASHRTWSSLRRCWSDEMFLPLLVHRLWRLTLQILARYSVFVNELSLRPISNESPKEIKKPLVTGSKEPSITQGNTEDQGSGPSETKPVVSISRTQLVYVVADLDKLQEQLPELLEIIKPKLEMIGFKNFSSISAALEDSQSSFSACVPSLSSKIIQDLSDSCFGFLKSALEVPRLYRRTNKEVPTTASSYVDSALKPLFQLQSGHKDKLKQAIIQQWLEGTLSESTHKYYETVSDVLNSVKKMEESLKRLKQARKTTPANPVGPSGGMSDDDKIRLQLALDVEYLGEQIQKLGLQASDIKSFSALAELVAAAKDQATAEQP

[7] = target: T7, HeLa cell extract proteins (Homo sapiens, UniProt P12236); details: captured protein SLC25A6; HeLa
T7 construct: endogenous in cells; host or cells: HeLa cell extract
T7 sequence (P12236 1-298): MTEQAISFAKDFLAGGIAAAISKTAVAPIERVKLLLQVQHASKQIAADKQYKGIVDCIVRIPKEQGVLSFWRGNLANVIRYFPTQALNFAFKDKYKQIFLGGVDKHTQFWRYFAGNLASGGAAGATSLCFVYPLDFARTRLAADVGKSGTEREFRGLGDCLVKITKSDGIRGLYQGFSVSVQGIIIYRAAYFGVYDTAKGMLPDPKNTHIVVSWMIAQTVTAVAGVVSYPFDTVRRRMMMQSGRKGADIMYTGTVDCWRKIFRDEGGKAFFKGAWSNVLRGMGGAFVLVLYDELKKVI

T1 sequence (Q9P2J5 whole entry): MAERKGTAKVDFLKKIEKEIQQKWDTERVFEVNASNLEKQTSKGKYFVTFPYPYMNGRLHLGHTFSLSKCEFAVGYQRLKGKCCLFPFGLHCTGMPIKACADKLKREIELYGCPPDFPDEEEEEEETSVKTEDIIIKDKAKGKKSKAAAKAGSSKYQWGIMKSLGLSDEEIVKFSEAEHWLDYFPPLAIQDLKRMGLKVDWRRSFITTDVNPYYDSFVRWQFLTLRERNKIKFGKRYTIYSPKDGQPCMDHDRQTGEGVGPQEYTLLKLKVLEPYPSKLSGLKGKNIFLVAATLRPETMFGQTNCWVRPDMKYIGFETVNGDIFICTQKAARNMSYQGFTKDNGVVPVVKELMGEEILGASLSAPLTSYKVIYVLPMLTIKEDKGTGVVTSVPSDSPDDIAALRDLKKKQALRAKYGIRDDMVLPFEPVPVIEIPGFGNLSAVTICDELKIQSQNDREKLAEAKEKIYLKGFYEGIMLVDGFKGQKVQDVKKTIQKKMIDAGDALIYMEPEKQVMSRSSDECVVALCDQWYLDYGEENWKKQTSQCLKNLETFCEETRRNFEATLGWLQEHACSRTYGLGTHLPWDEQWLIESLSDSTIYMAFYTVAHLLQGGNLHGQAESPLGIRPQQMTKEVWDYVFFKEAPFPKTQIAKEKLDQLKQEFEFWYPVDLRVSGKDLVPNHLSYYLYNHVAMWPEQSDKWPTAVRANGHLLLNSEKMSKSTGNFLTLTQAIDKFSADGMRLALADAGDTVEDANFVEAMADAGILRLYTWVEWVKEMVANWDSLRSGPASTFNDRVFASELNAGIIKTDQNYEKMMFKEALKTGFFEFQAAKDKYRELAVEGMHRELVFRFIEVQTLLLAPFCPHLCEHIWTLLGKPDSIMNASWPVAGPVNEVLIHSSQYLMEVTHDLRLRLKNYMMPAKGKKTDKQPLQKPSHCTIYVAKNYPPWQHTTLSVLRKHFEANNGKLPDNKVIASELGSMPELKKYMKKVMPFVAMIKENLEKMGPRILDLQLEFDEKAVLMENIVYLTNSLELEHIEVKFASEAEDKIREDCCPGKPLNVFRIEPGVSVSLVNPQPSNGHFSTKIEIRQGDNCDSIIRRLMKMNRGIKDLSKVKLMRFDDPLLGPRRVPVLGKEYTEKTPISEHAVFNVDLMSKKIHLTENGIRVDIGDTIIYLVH
T4 sequence (Q8WUX1 whole entry): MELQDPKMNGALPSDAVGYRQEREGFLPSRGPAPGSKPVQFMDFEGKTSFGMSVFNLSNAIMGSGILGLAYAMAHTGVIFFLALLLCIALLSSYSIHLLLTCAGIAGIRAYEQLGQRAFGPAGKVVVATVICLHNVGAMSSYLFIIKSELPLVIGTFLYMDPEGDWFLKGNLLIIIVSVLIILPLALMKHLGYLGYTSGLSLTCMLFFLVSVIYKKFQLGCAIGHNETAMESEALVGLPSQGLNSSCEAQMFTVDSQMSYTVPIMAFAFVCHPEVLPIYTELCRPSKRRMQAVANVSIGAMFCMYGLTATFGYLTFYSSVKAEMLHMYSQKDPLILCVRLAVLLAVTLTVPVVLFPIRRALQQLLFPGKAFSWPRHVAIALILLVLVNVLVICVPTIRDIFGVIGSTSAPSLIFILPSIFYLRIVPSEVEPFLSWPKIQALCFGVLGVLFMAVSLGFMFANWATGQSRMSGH
T5 sequence (Q9H7Z7 whole entry): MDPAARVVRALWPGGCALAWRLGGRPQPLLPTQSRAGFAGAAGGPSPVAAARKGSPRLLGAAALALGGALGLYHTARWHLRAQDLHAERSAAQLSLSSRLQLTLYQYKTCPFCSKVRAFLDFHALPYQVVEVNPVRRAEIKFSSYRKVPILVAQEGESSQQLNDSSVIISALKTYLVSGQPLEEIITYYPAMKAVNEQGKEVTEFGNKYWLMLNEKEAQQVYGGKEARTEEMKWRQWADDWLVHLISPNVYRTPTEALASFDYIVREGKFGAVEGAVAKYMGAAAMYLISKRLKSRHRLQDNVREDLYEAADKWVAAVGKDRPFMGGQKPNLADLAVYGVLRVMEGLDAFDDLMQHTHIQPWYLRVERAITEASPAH
T3 sequence (Q9UJ70 whole entry): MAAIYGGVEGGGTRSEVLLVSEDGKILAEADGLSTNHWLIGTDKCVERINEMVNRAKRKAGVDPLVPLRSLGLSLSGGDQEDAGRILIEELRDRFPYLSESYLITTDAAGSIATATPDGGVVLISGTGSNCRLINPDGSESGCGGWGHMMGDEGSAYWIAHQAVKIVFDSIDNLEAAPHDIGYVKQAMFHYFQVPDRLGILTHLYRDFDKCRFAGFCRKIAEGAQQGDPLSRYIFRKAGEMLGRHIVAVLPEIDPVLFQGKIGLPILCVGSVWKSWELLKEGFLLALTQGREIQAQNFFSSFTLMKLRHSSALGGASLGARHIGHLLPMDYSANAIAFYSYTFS

In the case of `Nc1nc2c(c(=O)[nH]1)N(C=O)C(CNc1ccc(C(=O)N[C@@H](CCC(=O)O)C(=O)O)cc1)CN2` (some centres unmarked) [LEU, leucovorin], the “fold changes relative to vehicle control” value ([1]; HeLa, protein LARS) is reported as 1.04 and the “fold changes relative to vehicle control” value ([2]; HeLa, protein XPO6) is reported as 0.99.
In the case of `Nc1nc2[nH]cc(CCc3ccc(C(=O)N[C@@H](CCC(=O)O)C(=O)O)cc3)c2c(=O)[nH]1` [PTX, pemetrexed], the “fold changes relative to vehicle control” value [1] is reported as 1.11 and the “fold changes relative to vehicle control” value [2] is reported as 0.98.
In the case of `CCCCCCOc1ccc(Cc2cnc(N)nc2N)cc1` [compound 1], the “fold changes relative to vehicle control” value [3] is reported as 0.83, the “fold changes relative to vehicle control” value [4] is reported as 0.91 and the “fold changes relative to vehicle control” value [5] is reported as 0.87. For the same molecule, the “fold changes relative to vehicle control” value [6] was 0.88 and the “fold changes relative to vehicle control” value [7] was 0.98.
For `CCCCCCOc1cccc(Cc2cnc(N)nc2N)c1` [compound 2], the “fold changes relative to vehicle control” value [3] was 1.2, the “fold changes relative to vehicle control” value [4] was 1.14 and the “fold changes relative to vehicle control” value [5] was 1.18. The “fold changes relative to vehicle control” value [6] was 1 and the “fold changes relative to vehicle control” value [7] was 1.04.
`Nc1nc2cccc(-c3ccccc3)c2n1Cc1ccc(Cl)c(Cl)c1` [compound 3] was tested, and the “fold changes relative to vehicle control” value [3] was 0.77, the “fold changes relative to vehicle control” value [4] was 0.95 and the “fold changes relative to vehicle control” value [5] was 0.84. The “fold changes relative to vehicle control” value [6] was 0.82 and the “fold changes relative to vehicle control” value [7] was 1.01.
In the case of `NCCOCCOCC(=O)Nc1nc2ncc(CNc3ccc(C(=O)NC(CCC(=O)O)C(=O)O)cc3)nc2c(=O)[nH]1` (centres unmarked) [compound 6], the “fold changes relative to vehicle control” value ([1]; HeLa, protein LARS) is reported as 1 and the “fold changes relative to vehicle control” value ([2]; HeLa, protein XPO6) is reported as 1.09.
With `NCCCNc1ccc(C(=O)NC(CCC(=O)O)C(=O)O)cc1` (centres unmarked) [compound 7] the “fold changes relative to vehicle control” value ([1]; HeLa, protein LARS) was 1.13 and the “fold changes relative to vehicle control” value ([2]; HeLa, protein XPO6) was 1.08.
